Entries after “also recorded” stand apart in the source; their conditions may differ. Non-standard residues stand in square brackets, D forms with d. Residues, ends and D or L forms follow the SMILES beside them. Nle = CCCC[C@H](N)C(=O)O
What was measured:
20S proteasome = target: T1, 20S proteasome (Oryctolagus cuniculus, UniProt G1T4Q9); test: Inhibition of the 20S proteasome peptidase activity (kinetic experiments); format: biochemical, Rabbit
T1 sequence (G1T4Q9 60-263): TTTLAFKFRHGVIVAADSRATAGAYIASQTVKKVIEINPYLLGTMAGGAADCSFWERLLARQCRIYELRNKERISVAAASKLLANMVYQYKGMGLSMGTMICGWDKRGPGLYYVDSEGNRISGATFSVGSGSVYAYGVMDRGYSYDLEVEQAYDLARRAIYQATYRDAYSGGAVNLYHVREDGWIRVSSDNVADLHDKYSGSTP
T1 sequence (G1SU71 1-241 partner): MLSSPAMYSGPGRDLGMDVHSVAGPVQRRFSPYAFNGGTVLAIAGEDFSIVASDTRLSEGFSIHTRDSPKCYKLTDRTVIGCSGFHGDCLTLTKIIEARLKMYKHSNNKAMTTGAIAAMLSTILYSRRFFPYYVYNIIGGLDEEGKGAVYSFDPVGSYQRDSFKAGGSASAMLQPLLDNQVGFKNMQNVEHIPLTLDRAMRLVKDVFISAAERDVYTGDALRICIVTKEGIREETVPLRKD
Description: Tables I-III summarize results from kinetic experiments that measured the inhibition of the 20S and 26S proteasomes, as well as cathepsin B and calpain, enzymes that may also be involved in muscle protein turnover. In these tables, Ki values are reported, which are dissociation constants for the equilibrium that is established when enzyme and inhibitor interact to form the enzyme:inhibitor complex.
The substances and assay conditions are briefly summarized in the footnotes to Table I. MG 101 and MG 102, also known as Calpain Inhibitor I and II, were purchased from Calbiochem as catalogue products.
(^a) Rabbit muscle. SDSactivated. Substrate: SucLLVYAMC.

[1] = system: mouse B lymphoblastoid cell line (LB27.4); test: MHC-I antigen presentation, intact cells (OVA loaded by hypotonic lysis of pinosomes); format: cell-based; settings: 50 μM MG 101 in media; FIG. 6
Procedure: Antigen-presenting cells (APCs)--mouse B lymphoblastoid cell line (LB27.4)--were washed free of serum and loaded with an ovalbumin peptide (residues 257-263), which corresponds to the sequence these cells naturally generate and present. The APCs were incubated 1 hr at 37° C., electroporated with antigen, incubated 10 min on ice and washed. The antigen loaded cells were incubated 2 hrs at 37° C., fixed with paraformaldehyde, and washed. MG 101 at the concentrations indicated in FIG. 5 was present in all steps prior to fixation. APCs were assayed for antigen presentation as described in Rock et al., J. Immunol. 145:804-811 (1990) and Carbone et al., J. Exp Med. 171:377-387 (1990). […] In the left panel, APCs were treated with (open circles) or without (closed circles) MG 101 and electroporated with ovalbumin. In the right panel, APCs were treated with (open circles) or without (closed circles) MG 101 and electroporated with ovalbumin peptide. Conditions were the same as in Example 7, except that (1) in one group of cells (referred to as MG 101 in media) MG 101 (50 μM) was omitted from the antigen load while in a parallel group (referred to as MG 101 in Ag load) MG 101 (50 μM) was included in the antigen load; and (2) OVA was introduced into the cytoplasm by hypotonic lysis of pinosomes (3) instead of electroporation.

RMA cells = test: Class I MHC assembly in RMA cells; format: cell-based
Procedure: Class I MHC molecules are peptide-binding receptors composed of a heavy and a light chain. Peptide binding to these molecules is essential for the stable association of the heavy and light chains. […] To test the effect of MG 101 on class I assembly, RMA cells were incubated with and without MG 101 (100 μM) for 1 hr at 37° C., electroporated with and without MG 101 (100 μM) as described in Example 7, and incubated with and without MG 101 (100 μM) for 3 hrs at 37° C. Over the last 30 min of incubation the cells were pulse labeled with ^35 S-methionine and were then washed and detergent lysates were prepared. Lysates were divided and class I binding peptides were added to one group. Class I molecules were immunoprecipitated with a mAb, Y3 (Townsend et al., Cell 62:285-295 (1990)), that only reacts with assembled class I heterodimers and analyzed as previously described ([…] et al., Nature 363:552-554 (1993)).

## CCCC[C@@H](C=O)NC(=O)[C@H](CC(C)C)NC(=O)[C@H](CC(C)C)NC(C)=O [MG 101, Ac-Leu-Leu-Nle-H] (Ac-Leu-Leu-[Nle]-aldehyde)
20S proteasome; FIG. 1
  Mode of inhibition of peptidase activity of muscle 20S proteasome: competitive inhibitor
20S proteasome; both latent and active forms of 20S proteasome, read-out: Ki, peptidase activities of 20S proteasome
  Ki: 0.14 to 7 µM
[1]
  Antigen presentation from ovalbumin in intact cells: can enter into living cells and inhibit antigen processing; also recorded: inhibits presentation of antigen from ovalbumin
RMA cells; 100 μM MG 101, FIG. 7
  Assembly of class I heterodimers: markedly reduced
RMA cells; 100 μM MG 101, FIG. 7 lane 4
  Class I complex formation from introduced antigenic peptide: fails to inhibit complex formation from introduced antigenic peptide
RMA cells; FIG. 7
  Appearance of MHC-I molecules on the cell surface: specifically blocks the movement of functional MHC-I complexes to the cell surface; also recorded: blocks the appearance of MHC-I molecules on the cell surface
RMA cells; control experiments
  Level of the individual class I subunits: does not affect the level of the individual subunits

From patent publication US5693617A, “Inhibitors of the 26s proteolytic complex and the 20s proteasome contained therein” (ProScript, Inc., priority 1995, dated 1997)
